Measurements reported in ChEMBL document CHEMBL4831549, “The Marine Neurotoxin Brevetoxin (PbTx-2) Inhibits Karenia brevis and Mammalian Thioredoxin Reductases by Targeting Different Residues” (J Nat Prod, 2021).
The source made the active and inactive calls. The calls are words filed in the database; no cut-off is given here.

What was measured:
Karenia brevis [1] = assay: Inhibition of Karenia brevis TrxR assessed as reduction in substrate reduction at 40 uM using DTNB as a substrate incubated for 60 mins in the presence of NADPH followed by substrate addition measured for 5 mins by absorbance based assay relative to control
Karenia brevis [2] = assay: Inhibition of Karenia brevis TrxR assessed as reduction in substrate reduction at 10 to 100 uM using H2O2 as a substrate incubated for 60 mins in the presence of NADPH followed by substrate addition measured for 15 mins by absorbance based assay relative to control; settings: dose 10-100 µM
Karenia brevis [3] = assay: Inhibition of Karenia brevis TrxR assessed as reduction in substrate reduction at 40 uM using human Trx and insulin as a substrate incubated for 60 mins in the presence of NADPH followed by substrate addition measured for 5 mins by absorbance based assay relative to control
Karenia brevis [4] = assay: Inhibition of Karenia brevis TrxR assessed as reduction in substrate reduction at 40 uM using GSSG as a substrate incubated for 60 mins in the presence of NADPH followed by substrate addition measured for 30 mins by absorbance based assay relative to control
Karenia brevis [5] = assay: Inhibition of Karenia brevis TrxRD3 assessed as reduction in substrate reduction at 40 uM using DTNB as a substrate incubated for 60 mins in the presence of NADPH followed by substrate addition measured for 5 mins by absorbance based assay relative to control
[6] = Inhibition of Karenia brevis TrxR assessed as reduction in substrate reduction using H2O2 as a substrate incubated for 60 mins in the presence of NADPH followed by substrate addition measured for 15 mins by absorbance based assay
[7] = target: T1, Thioredoxin reductase 1, cytoplasmic (Rattus norvegicus) (UniProt O89049); assay: Binding affinity to rat TrxR1 assessed as adduct formation at 7.2 uM by LC-MS/MS analysis
T1 sequence (whole entry): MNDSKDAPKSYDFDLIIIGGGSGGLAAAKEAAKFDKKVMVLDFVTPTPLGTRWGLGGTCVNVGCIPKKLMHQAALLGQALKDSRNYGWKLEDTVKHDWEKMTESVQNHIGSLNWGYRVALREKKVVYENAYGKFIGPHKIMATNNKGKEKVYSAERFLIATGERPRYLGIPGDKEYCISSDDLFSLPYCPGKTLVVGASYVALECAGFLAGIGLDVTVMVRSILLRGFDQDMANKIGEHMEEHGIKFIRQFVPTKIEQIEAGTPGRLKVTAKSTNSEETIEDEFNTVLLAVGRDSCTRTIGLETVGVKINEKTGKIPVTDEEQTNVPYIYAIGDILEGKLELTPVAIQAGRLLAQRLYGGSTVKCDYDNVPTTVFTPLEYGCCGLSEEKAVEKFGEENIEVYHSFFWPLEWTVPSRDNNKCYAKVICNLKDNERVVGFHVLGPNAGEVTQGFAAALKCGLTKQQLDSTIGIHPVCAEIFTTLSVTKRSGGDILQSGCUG

Karenia brevis [8] = assay: Binding affinity Karenia brevis TrxR assessed as formation at 7.2 uM by LC-MS/MS analysis

With `C=C(C=O)C[C@@H]1C[C@H](O)[C@]2(C)O[C@@H]3C[C@@H]4O[C@@H]5C[C@]6(C)O[C@]7(C)CC[C@@H]8O[C@@H]9C[C@]%10(C)O[C@@H]%11C(C)=CC(=O)O[C@H]%11C[C@H]%10O[C@H]9C[C@@H](C)[C@H]8O[C@H]7C[C@H]6O[C@@]5(C)C/C=C\[C@H]4O[C@H]3C[C@H]2O1` [BREVETOXIN B] the inhibition (Karenia brevis [1]) was 44.7%, the inhibition (Karenia brevis [2]) was 39.6% and the inhibition (Karenia brevis [3]) was 34%. For the same compound, the inhibition (Karenia brevis [4]) was 32.5%, the inhibition (Karenia brevis [5]) was 20.7% and the IC50 [6] was 56 µM. The Activity [7] was “Active” and the Activity (Karenia brevis [8]) was “Active”.
